pIC50: −log10 of the molar value.
Tested on: 242566-281-R-J2-PDC complex spheroid viability
Assay: Anticancer human tumor 242566-281-R-J2-PDC patient-derived pancreatic carcinoma cell line growth inhibition [CLK]
Conditions: for pIC50: curve of first compound; for viability, T/C: stronger effect = lower value
How it was run: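 Multi-cell-type spheroids combined patient-derived tumor cells with HUVEC endothelial cells and human mesenchymal stem cells. Paired agents were dosed in half-log steps down from about clinical Cmax, or from 10 microM where Cmax was unknown.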
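Note: spheroids exposed to compounds for 7 days before readout.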
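Throughout, for viability, T/C: 100% = DMSO vehicle control wells.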

## NC(=O)C(=Cn1cnc(-c2cc(C(F)(F)F)cc(C(F)(F)F)c2)n1)c1cncnc1 + CNC(=O)c1ccc(Nc2nc(OC3CCCC3)c3c(-c4ccc5nc(C)oc5c4)c[nH]c3n2)c(OC)c1
Second compound 0.0316 µM
  pIC50: < 5.52
Second compound 0.1 µM
  pIC50: < 5.52
Second compound 0.316 µM
  pIC50: 5.70
Second compound 1 µM
  pIC50: 6.12
Second compound 3.16 µM
  pIC50: 6.39
Second compound 10 µM
  pIC50: 6.51
Second compound 0.0316 µM, first compound 0.00949 µM
  viability, T/C: 119%
Second compound 0.0316 µM, first compound 0.03 µM
  viability, T/C: 129%
Second compound 0.0316 µM, first compound 0.0949 µM
  viability, T/C: 128%
Second compound 0.0316 µM, first compound 0.3 µM
  viability, T/C: 141%
Second compound 0.0316 µM, first compound 0.949 µM
  viability, T/C: 109%
Second compound 0.0316 µM, first compound 3 µM
  viability, T/C: 57.1%
Second compound 0.1 µM, first compound 0.00949 µM
  viability, T/C: 109%
Second compound 0.1 µM, first compound 0.03 µM
  viability, T/C: 125%
Second compound 0.1 µM, first compound 0.0949 µM
  viability, T/C: 130%
Second compound 0.1 µM, first compound 0.3 µM
  viability, T/C: 129%
Second compound 0.1 µM, first compound 0.949 µM
  viability, T/C: 98%
Second compound 0.1 µM, first compound 3 µM
  viability, T/C: 51.1%
Second compound 0.316 µM, first compound 0.00949 µM
  viability, T/C: 106%
Second compound 0.316 µM, first compound 0.03 µM
  viability, T/C: 91.5%
Second compound 0.316 µM, first compound 0.0949 µM
  viability, T/C: 117%
Second compound 0.316 µM, first compound 0.3 µM
  viability, T/C: 122%
Second compound 0.316 µM, first compound 0.949 µM
  viability, T/C: 69.1%
Second compound 0.316 µM, first compound 3 µM
  viability, T/C: 39.2%
Second compound 1 µM, first compound 0.00949 µM
  viability, T/C: 87.2%
Second compound 1 µM, first compound 0.03 µM
  viability, T/C: 99.1%
Second compound 1 µM, first compound 0.0949 µM
  viability, T/C: 87.2%
Second compound 1 µM, first compound 0.3 µM
  viability, T/C: 86.4%
Second compound 1 µM, first compound 0.949 µM
  viability, T/C: 41.2%
Second compound 1 µM, first compound 3 µM
  viability, T/C: 12.4%
Second compound 3.16 µM, first compound 0.00949 µM
  viability, T/C: 77.4%
Second compound 3.16 µM, first compound 0.03 µM
  viability, T/C: 82.6%
Second compound 3.16 µM, first compound 0.0949 µM
  viability, T/C: 78.3%
Second compound 3.16 µM, first compound 0.3 µM
  viability, T/C: 57.9%
Second compound 3.16 µM, first compound 0.949 µM
  viability, T/C: 25.8%
Second compound 3.16 µM, first compound 3 µM
  viability, T/C: 5.98%
Second compound 10 µM, first compound 0.00949 µM
  viability, T/C: 72.5%
Second compound 10 µM, first compound 0.03 µM
  viability, T/C: 70.6%
Second compound 10 µM, first compound 0.0949 µM
  viability, T/C: 71.8%
Second compound 10 µM, first compound 0.3 µM
  viability, T/C: 49.8%
Second compound 10 µM, first compound 0.949 µM
  viability, T/C: 17.3%
Second compound 10 µM, first compound 3 µM
  viability, T/C: 4.4%

## O=C(c1cc(Cc2n[nH]c(=O)c3ccccc23)ccc1F)N1CCN(C(=O)C2CC2)CC1 + CN1CCN(c2cc(C(=O)Nc3cc4cc(-c5cnn(C)c5)ccc4cn3)ccn2)CC1
Second compound 0.0316 µM
  pIC50: < 5.00
Second compound 0.1 µM
  pIC50: < 5.00
Second compound 0.316 µM
  pIC50: > 7.50
Second compound 1 µM
  pIC50: > 7.50
Second compound 3.16 µM
  pIC50: > 7.50
Second compound 10 µM
  pIC50: > 7.50
Second compound 0.0316 µM, first compound 0.0316 µM
  viability, T/C: 108%
Second compound 0.0316 µM, first compound 0.1 µM
  viability, T/C: 98%
Second compound 0.0316 µM, first compound 0.316 µM
  viability, T/C: 94.9%
Second compound 0.0316 µM, first compound 1 µM
  viability, T/C: 95.3%
Second compound 0.0316 µM, first compound 3.16 µM
  viability, T/C: 89.6%
Second compound 0.0316 µM, first compound 10 µM
  viability, T/C: 80.3%
Second compound 0.1 µM, first compound 0.0316 µM
  viability, T/C: 96.8%
Second compound 0.1 µM, first compound 0.1 µM
  viability, T/C: 96.9%
Second compound 0.1 µM, first compound 0.316 µM
  viability, T/C: 79.1%
Second compound 0.1 µM, first compound 1 µM
  viability, T/C: 85.6%
Second compound 0.1 µM, first compound 3.16 µM
  viability, T/C: 88.3%
Second compound 0.1 µM, first compound 10 µM
  viability, T/C: 62.8%
Second compound 0.316 µM, first compound 0.0316 µM
  viability, T/C: 33.5%
Second compound 0.316 µM, first compound 0.1 µM
  viability, T/C: 34.3%
Second compound 0.316 µM, first compound 0.316 µM
  viability, T/C: 29.7%
Second compound 0.316 µM, first compound 1 µM
  viability, T/C: 31.1%
Second compound 0.316 µM, first compound 3.16 µM
  viability, T/C: 29.2%
Second compound 0.316 µM, first compound 10 µM
  viability, T/C: 23.2%
Second compound 1 µM, first compound 0.0316 µM
  viability, T/C: 5.93%
Second compound 1 µM, first compound 0.1 µM
  viability, T/C: 3.31%
Second compound 1 µM, first compound 0.316 µM
  viability, T/C: 4.81%
Second compound 1 µM, first compound 1 µM
  viability, T/C: 4.43%
Second compound 1 µM, first compound 3.16 µM
  viability, T/C: 5.12%
Second compound 1 µM, first compound 10 µM
  viability, T/C: 5.59%
Second compound 3.16 µM, first compound 0.0316 µM
  viability, T/C: 7.36%
Second compound 3.16 µM, first compound 0.1 µM
  viability, T/C: 7.02%
Second compound 3.16 µM, first compound 0.316 µM
  viability, T/C: 6.98%
Second compound 3.16 µM, first compound 1 µM
  viability, T/C: 7.16%
Second compound 3.16 µM, first compound 3.16 µM
  viability, T/C: 7.79%
Second compound 3.16 µM, first compound 10 µM
  viability, T/C: 10.4%
Second compound 10 µM, first compound 0.0316 µM
  viability, T/C: 1.95%
Second compound 10 µM, first compound 0.1 µM
  viability, T/C: 2.1%
Second compound 10 µM, first compound 0.316 µM
  viability, T/C: 1.53%
Second compound 10 µM, first compound 1 µM
  viability, T/C: 2.95%
Second compound 10 µM, first compound 3.16 µM
  viability, T/C: 2.41%
Second compound 10 µM, first compound 10 µM
  viability, T/C: 1.71%

Source: PubChem BioAssay AID2060622 (Molecular Pharmacology Branch, DTP, NCI, 2025)
